# Experiments:
# [1] = test system: mice embryonic fibroblasts (MEF+/+, knockout mice line LMNA); assay: Effect on Helicobacter pylori-induced mitochondrial damage in mouse embryonic fibroblasts (mito-GFP confocal microscopy); assay type: cell-based; conditions: peptide 10 µM added 30 minutes before Helicobacter pylori (strain Cag J117), 7 hours incubation; compared to control
# Protocol: A study of the effect of a pharmaceutical composition comprising the peptide H-Glu-Asp-Gly-OH as an active substance on molecular and cellular mechanisms of apoptosis was carried out on a wild type of mice embryonic fibroblasts (MEF+/+, knockout mice line LMNA). Cells were cultivated at 37°C in a damp incubation medium containing 5% CO2 in DMEM (Dulbecco's Modified Eagle's Medium, ICN Biomedicals) and 10% calf embryonic serum. Preliminary sorting of cells for passaging in a 1:3-1:5 ratio was performed using a mixture of 0.125% trypsin, 0.02M EDTA (ethylenediaminetetraacetic acid), 0.02% glucose dissolved in a phosphate buffer. Cells were passaged in a culturing medium for 5 days and then taken for the study.
# On the 5th day after the beginning of passaging of the cells peptide H-Glu-Asp-Gly-OH was added in the culturing medium in the dose of 10 µM, and in 30 minutes the cells were taken for study. […]
# The status of isolated mitochondria was evaluated using immunofluorescent confocal laser microscopy. […]
# Confocal microscopy of mitochondria with optical density evaluation was carried out in an inverted confocal microscope Olympus Fluoview CM FV300-IX70 using an apochromatic lens 606 UPlan (Olympus). A 488 nm excitation wave of argon laser was used in each chamber to specify mito-GFP fluorescence that verifies the structure of mitochondria.
# modeled ulcer = assay: Morphology study of the induced gastric ulcer (cysteamine-HCL + Helicobacter pylori); assay type: in vivo, Sprague Dawley rats
# Protocol: The study was carried out on 90 male Sprague Dawley rats (180-220 g) randomly subdivided into 9 groups (10 animals per group): • Group 1 - intact rats (saline solution) • Group 2 - modeled ulcer + saline solution • Group 3 (6 subgroups) - modeled ulcer + H-Glu-Asp-Gly-OH • Group 4 - modeled ulcer + Klacid antibiotic
# Ulcer was modeled by three-time administration (in 4 hours) in the rat stomach of cysteamine-HCL (Aldrich, Milwannee, WI) by means of a probe in the dose of 25 mg per 100 g of body weight. The ulcer, approximately 28 mm^2 in size, appeared at the boundary between antral and fundal segments of the stomach 12 hours after the last administration. Simultaneously with the first administration of cysteamine-HCL a Helicobacter pylori culture (Curtin Matheson Scientific Inc, strain Cag J117, 100 microbial cells) was administered in the rat stomach through the same probe.
# A means on the basis of the pharmaceutical composition comprising the studied peptide H-Glu-Asp-Gly-OH was administered subcutaneously in the dose of 1 µg per kg of animal body weight (group 3a), 2,5 µg per kg of body weight (group 3b) and 10 µg per kg of body weight (group 3c) in 0,5 ml of saline solution daily, for 5 days from the occurrence of the stomach ulcer.
# The means on the basis of the pharmaceutical composition comprising the studied peptide H-Glu-Asp-Gly-OH was administered intragastrically (through a probe) in the dose of 1 µg per kg of animal body weight (group 3d), 2,5 µg per kg of body weight (group 3e) and 10 µg per kg of body weight (group 3f) in 0,5 ml of saline solution daily, for 5 days from the occurrence of the stomach ulcer.
# Antibiotic Klacid (clarithromycin, Abbott) was administered intramuscularly in the dose of 10 mg in 1 ml of saline solution daily for 5 days from the occurrence of the stomach ulcer.
# Material for study was taken from ulcer edge on the 7th day (for western blot assay and polymerase chain reaction in real time - RT-PCR), as well as on the 7th, 15th and 21st day for morphology study and confocal microscopy.
# For a morphology study, pieces of gastric mucous membrane from the ulcer edge were fixed in 10% neutral formalin (pH 7.2), then the material was dried out in a Leica TP1020 automatic station (Leica) and covered with paraffin. 5 µm thick paraffin slices were placed on object plates covered with a poly-L-lysine film (Sigma). For a visual study the slices were stained with hematoxylin and eosin, as well as with picrofuxin by the van Gison method.
# [2] = Chronic toxicity study, 6 months; assay type: in vivo, male guinea pigs; conditions: guinea pigs
# Description: General toxicity of peptide H-Glu-Asp-Gly-OH was studied in accordance with the requirements of "Manual for Experimental (Pre-Clinical) Study of New Pharmacological Substances" (2000): acute toxicity in case of a single administration of the preparation, as well as subacute and chronic toxicity in case of a long-term administration of the peptide.
# Chronic toxicity was studied for 6 months basing on the duration of the recommended clinical administration of the preparation on 92 male guinea pigs with body weight 310-350 g. Experimental animals were treated with the peptide daily, once a day, intramuscularly for 6 months in the doses of 1 µg/kg, 0,1 mg/kg, 1 mg/kg in 0,5 ml of sterile 0,9% NaCl solution. Control animals received sterile 0,9% NaCl solution according to the same scheme and in the same volume. The following indices were identified in the peripheral blood of the animals using traditional methods: quantity of erythrocytes, hemoglobin, reticulocytes, thrombocytes, leukocytes, leukocyte formula, erythrocyte sedimentation rate (ESR), erythrocyte resistance. Further, total protein was identified in the blood serum by the Lowry method, as well as potassium and sodium using plasma spectrophotometry method. […]
substance,measurement,setting,value
glutamyl-aspartyl-glycine [H-Glu-Asp-Gly-OH],luminescence of mitochondrial GFP in terms of optical density values,[1],exceeded the control indices
same,"ulcer pathomorphosis, 7th day","modeled ulcer; 7th day after ulcer induction, treatment daily for 5 days, peptide 1, 2,5, 10 µg/kg subcutaneously or intragastrically, Klacid 10 mg intramuscularly",a decrease both in the area of the ulcerous lesion and in its depth was observed
same,"ulcer pathomorphosis, 15th day","modeled ulcer; 15th day after ulcer induction, treatment daily for 5 days, peptide 1, 2,5, 10 µg/kg subcutaneously or intragastrically, Klacid 10 mg intramuscularly",a significant decrease in ulcerous lesion area and depth was observed
same,"ulcer pathomorphosis, 21st day","modeled ulcer; 21st day after ulcer induction, treatment daily for 5 days, peptide both methods of administration and three dosages, Klacid 10 mg intramuscularly",no ulcerous lesions were macroscopically observed
same,pathomorphosis of an induced gastric ulcer (Fig. 12 C),"modeled ulcer; 21st day, peptide dose 2,5 µg/kg",complete epithelization of the ulcer
same,delay of epithelialization of the ulcerous lesion compared to higher doses,"modeled ulcer; dose 1,0 µg/kg (Groups 3a and 3d) versus 2,5 µg/kg and 10 µg/kg",2 to 3 days
same,chronic toxicity,"[2]; intramuscularly daily for 6 months, 1 µg/kg, 0,1 mg/kg, 1 mg/kg, doses exceed the therapeutic one by 100-1000 times",no side effects
same,"effect on the ESR, erythrocyte resistance and biochemical indices of the blood serum",[2]; long-term administration,No significant effect

# Reference: patent EP2667887B1, “PHARMACEUTICAL COMPOSITION COMPRISING THE PEPTIDE GLU-ASP-GLY AND USE FOR TREATING HELICOBACTER PYLORI INDUCED GASTRODUODENAL DISEASES” («Garmonia», Ltd., priority 2011, dated 2012)
